Results as given in patent US20240269157A1, “COMPOSITIONS AND METHODS FOR OVERCOMING MICROENVIRONMENT-MEDIATED RESISTANCE VIA E-SELECTIN TARGETING” (GLYCOMIMETICS, INC., priority 2021, published 2024).

How the values were obtained:
KG1 cells [1] = test: Flow cytometry of E-selectin-PE and HECA-452-FITC reactivity with KG1 cells; format: cell-based, human; settings: 100 nM 5-AZA
Procedure: The increased adhesion of KG1 cells to E-selectin following treatment with 5-AZA was further examined by flow cytometry. Cells were cultured for 96 hours in the presence or absence of 100 nM 5-AZA. The binding of E-selectin-PE (E-selectin-Fc chimera conjugated with R-phycoerythrin) to the cells was determined by flow cytometry. In addition, the reactivity of the cells with HECA-452 monoclonal antibody, which specifically reacts with sialyl Lewis A/X carbohydrate structures and is a surrogate marker of E-selectin ligand, was determined by flow cytometry.
Specifically, KG1 cells were centrifuged at 250×g for 10 minutes, washed with HBSS containing 0.1% bovine serum albumin (HBSS/BSA), and resuspended in HBSS/BSA to approximately 3×10^6 cells per mL. The cells were treated with Fc receptor blocker (Miltenyi Biotech) and 100 μL aliquots (3×10^5 cells) were added to 12×75 mm Falcon polypropylene tubes. Cells were treated with either 5 μL E-selectin-Fc-PE reagent or 20 μL HECA-452-FITC antibody, placed at 4° C. for 45 minutes, washed with 2 mL then again with 1 mL HBSS/BSA. Final cell pellets were resuspended in 500 μl HBSS/BSA and analyzed on an Attune N×T flow cytometer. E-selectin was conjugated with R-phycoerythrin using the PE/R-phycoerythrin conjugation kit—Lightning-Link (Abcam ab102918).

KG1 cells [2] = test: Global DNA methylation (5-mC) ELISA in KG1 cells; settings: 100 nM 5-AZA, 96 hours (untreated 0.33%)
Procedure: Prior to assessing the effect of 5-AZA on specific gene expression, its effect on global DNA methylation was assessed by specifically measuring levels of 5-methylcytosine (5-mC) in a colorimetric ELISA-like reaction. DNA was isolated from cell pellets using a DNA Isolation Kit for Cells and Tissues (Roche Catalog No. 11 814 770 001). DNA was quantified using a DNA Quantification Assay Kit (BioVision Catalog No. K539-200). Global DNA methylation was measured using the MethylFlash™ Global DNA Methylation (5-mC) ELISA Easy Kit (EpiGentek Catalog No. P-1030).
DNA was isolated and purified from cell pellets and evaluated for 5-mC levels.

E-selectin = biological target: T1, E-selectin (Homo sapiens, UniProt P16581); test: Compound A binding to E-selectin (KD)
T1 sequence (P16581 22-610): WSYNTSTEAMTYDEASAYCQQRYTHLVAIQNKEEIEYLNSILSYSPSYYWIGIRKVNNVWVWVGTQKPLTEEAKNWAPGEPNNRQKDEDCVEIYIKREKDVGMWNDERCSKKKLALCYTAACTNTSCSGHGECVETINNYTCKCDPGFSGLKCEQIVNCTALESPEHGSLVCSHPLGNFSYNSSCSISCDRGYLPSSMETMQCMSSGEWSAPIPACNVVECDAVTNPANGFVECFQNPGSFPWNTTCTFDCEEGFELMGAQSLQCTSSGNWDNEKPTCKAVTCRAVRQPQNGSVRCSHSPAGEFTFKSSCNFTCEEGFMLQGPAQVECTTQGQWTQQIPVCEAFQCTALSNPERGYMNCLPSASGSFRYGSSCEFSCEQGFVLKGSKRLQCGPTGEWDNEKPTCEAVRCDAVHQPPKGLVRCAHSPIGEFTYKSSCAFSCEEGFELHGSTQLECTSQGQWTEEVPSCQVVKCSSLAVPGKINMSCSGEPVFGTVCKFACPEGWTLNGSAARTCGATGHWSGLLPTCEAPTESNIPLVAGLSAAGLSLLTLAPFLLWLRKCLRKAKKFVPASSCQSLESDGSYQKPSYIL

human MSC = test: CD44 surface expression in MSC exposed to soluble E-selectin; format: cell-based; settings: MSC in vitro
Text: To determine if E-selectin has indispensable effects in bone marrow niche component cells, healthy donor derived-mesenchymal stroma cells (MSC) were exposed to increasing concentrations of E-selectin. […] Abrogation of E-selectin binding by Compound A diminished CD44 expression in vitro.

luc-MV4.11 cells = test: MV4.11 AML model survival; format: in vivo, NSG mice; settings: 40 mg/kg Compound A i.p., 100 mg/kg venetoclax oral, 14 days once daily
Procedure: To evaluate the efficacy of targeting E-selectin with Compound A in combination with venetoclax, an in vivo MV4.11 AML model was employed (FIG. 16).
luc-MV4.11 cells (5×10^6 cells/mouse) were transplanted into NSG mice. Mice were divided into four groups: vehicle treatment only; 40 mg/kg of Compound A (intraperitoneal, 14 day once daily); 100 mg/kg venetoclax (oral, 14 days once daily), and a combination of 40 mg/kg Compound A and 100 mg/kg venetoclax. Drug treatment was initiated on day 10 post-transplantation.

[3] = system: PDX AML (Flt3-ITD and WT1 mutations, sorafenib-resistant); test: PDX model (Flt3-ITD and WT1 mutations, sorafenib-resistant), CyTOF after 2 days; format: in vivo, mice
Procedure: To delineate the mechanism of E-selectin at the onset of drug-mediated changes in AML signaling signatures, another PDX model was employed (Flt3-ITD and WT1 mutations, sorafenib-resistant).
PDX mice with advanced AML (more than 20% human AML cells circulation in peripheral blood) were administered vehicle control, venetoclax (25 mg/kg)/HMA (5.5 mg/kg), Compound A (200 mg/kg), or a combination therapy for 2 days. After 2 days of bolus drug administration, mice were sacrificed and subjected to CyTOF analysis (FIGS. 9A-C). Single cell proteomics analysis by CyTOF determined that combinatorial treatment of Compound A with venetoclax/HMA diminished levels of Ki67, IDU, and pRb compared to vehicle control or venetoclax/HMA alone, resulting in decreased proliferation of AML blasts.

SMILES	increase in MFI, HECA-452 (KG1 cells [1]; 96 hours) [%]	increase in median fluorescence intensity, E-selectin-PE (KG1 cells [1]; 96 hours) [%]	increase in the percentage of cells reactive with E-selectin-PE (KG1 cells [1]; 96 hours) [%]	increase in the percentage of cells reactive with HECA-452 (KG1 cells [1]; 96 hours) [%]	percentage of cells reactive with HECA-452 (KG1 cells [1]; 96 hours (untreated 37.8%)) [%]	percentage of cells reactive with E-selectin-PE (KG1 cells [1]; 96 hours (untreated 38.4%)) [%]	MFI, HECA-452 (KG1 cells [1]; 96 hours (untreated 621))	median fluorescence intensity (MFI), E-selectin-PE (KG1 cells [1]; 96 hours (untreated 940))	level of 5-mC (KG1 cells [2]) [%]	Kd (E-selectin) [nM]	CD44 expression (human MSC)	median survival time (MST) (luc-MV4.11 cells) [days]	oncogenic signaling pathways MAPK, p-S6, and STAT3 ([3]; Compound A added to venetoclax/HMA)	activation of PI3K and AKT in AML blasts and BM CD31+EC cells ([3]; mouse, in vivo)	eNOS phosphorylation in EC ([3]; mouse, in vivo)
Nc1ncn([C@@H]2O[C@H](CO)[C@@H](O)[C@H]2O)c(=O)n1 [5-azacitidine]	26	38	38	27	47.9	52.9	783	1299	0.12	–	–	–	–	–	–
CCC1CC(C(=O)NCCNC(=O)CCOCCOCCOCCOCCOCCOCCOCCOCCOCCOCCOCCOC)C[C@@H](O[C@@H]2OC(CO)[C@H](O)C(O[C@@H](CC3CCCCC3)C(=O)O)C2NC(C)=O)[C@@H]1OC1O[C@@H](C)[C@H](O)C(O)[C@@H]1O (stereo partly drawn) [Compound A]	–	–	–	–	–	–	–	–	–	~450	diminished	39	inhibited	reduced	decreased
